Columns and labels:
NF-κB pathway = test: NF-κB activity reporter assay in THP1-Dual cells; format: cell-based, human; settings: for NF-κB pathway activation when treated with LPS: 16 hours, vs vehicle; for NF-κB pathway activation combined with PRR agonists: LPS or other NF-κB pathway inducers
Procedure: NF-κB and IRF induction assays were performed using mouse RAW-Dual™ (InvivoGen) and human THP1-Dua™ (InvivoGen) reporter cell lines. The cells were resuspended in freshly prepared test media at a concentration of 1.0×10^6 cells/mL for RAW-Dual™ and 5.0×10^5 cells/mL for THP1-Dual™. 180 μL of cells were seeded per well in a standard 96-well plate and optimized the concentration of several PRR agonists that trigger NF-κB and IRF. To test the metabolite effect on these pathways, 10 μL of the optimized receptor agonist, 10 μL of the 2 mM metabolite solution or vehicle was added to each well, making a final volume of 200 μL. To neutralize IL-1 receptor signalling, anti-IL-1a (clone 7D4, InvivoGen) and anti-IL-1β (clone 4H5, InvivoGen) antibodies were added and IgG1 isotype (clone T8E5, InvivoGen) was used as a control, as per manufacturer's recommendation. NF-κB activity was determined by measuring secreted embryonic alkaline phosphatase (SEAP) levels using QUANTI-Blue™ solution (InvivoGen). After aliquoting 20 μL of cell culture supernatant into 180 μL of QUANTI-Blue™, the conversion of color to blue was monitored and SEAP levels were determined using a SpectraMax i3 from Molecular Devices at 650 nm. To assess IRF induction, secreted lucia luciferase levels were measured in the culture medium using QUANTI-Luc™ solution (InvivoGen). 20 μL of cell culture supernatant was aliquoted into 50 μL of QUANTI-Luc™ solution and the luminescence reading was immediately recorded using the SpectraMax i3.

IRF pathway = format: cell-based, human
GSDMD = target: T1, GSDMD (Homo sapiens, UniProt P57764); test: Western blot of GSDMD cleavage in THP-1 cells; format: cell-based
T1 construct: host or cells: THP1-Dual cells (human monocytic reporter line)
T1 sequence (P57764 1-484): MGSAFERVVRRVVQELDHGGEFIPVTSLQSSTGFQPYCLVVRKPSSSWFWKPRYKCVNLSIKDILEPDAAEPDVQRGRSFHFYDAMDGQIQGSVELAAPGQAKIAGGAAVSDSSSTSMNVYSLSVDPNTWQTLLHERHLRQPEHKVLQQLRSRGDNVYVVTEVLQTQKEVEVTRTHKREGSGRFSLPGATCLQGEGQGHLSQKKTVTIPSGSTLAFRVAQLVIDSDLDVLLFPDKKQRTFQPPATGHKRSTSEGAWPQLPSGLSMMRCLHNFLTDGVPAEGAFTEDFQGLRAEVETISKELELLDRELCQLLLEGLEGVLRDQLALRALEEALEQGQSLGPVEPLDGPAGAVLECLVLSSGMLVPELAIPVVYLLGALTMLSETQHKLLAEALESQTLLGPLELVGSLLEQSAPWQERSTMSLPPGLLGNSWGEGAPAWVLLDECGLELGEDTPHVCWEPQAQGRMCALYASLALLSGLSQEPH
Procedure: Cells were collected and lysates prepared using total lysis buffer (50 mM Tris-HCl, pH 8.0; 150 mM NaCl; 1% Triton X-100; 1% SDS). The supernatant was obtained by centrifuging at 10,000 RPM for 10 minutes at 4° C. using a benchtop PCR centrifuge. Protein quantification was performed using the Bio-Rad DC Protein Assay Kit (Bio-Rad, NC, USA). Proteins were separated using 12% SDS-PAGE gels and transferred to a PVDF membrane using the Bio-Rad Trans-turbo semi-dry transfer apparatus at 25 V/1 A for 1 hour. The membrane was blocked with Tris-buffered-saline-Tween-20™ (TBST) containing 5% skim milk for 30 minutes at room temperature. The membrane was then probed overnight at 4° C. with rabbit monoclonal recombinant anti-GSDMD antibody (ab210070, Abcam), anti-cleaved N-terminal GSDMD antibody (ab215203, Abcam) and mouse anti-actin monoclonal antibody (MAB1501, MilliporeSigma) for human FL-GSDMD, CL-GSDMD and actin. The next day, the membranes were washed with TBST three times and probed with goat anti-rabbit (1706515, Bio-Rad) or goat anti-mouse (1706516, Bio-Rad) horseradish peroxidase-conjugated IgG for 1 hour at room temperature. The secondary antibodies were diluted in TBST containing 5% (w/v) skim milk at 1:5000 and the membranes washed with TBST before detecting the proteins of interest using the Clarity™ Western ECL Substrate (Bio-Rad) on a Chemidoc-IT Imager (UVP, Upland, CA, USA).

influenza virus = settings: early study, Science 357, 498-502 (2017); cited from earlier work

O=C(O)CCCc1ccc(O)cc1 [III-1, 4-(4-hydroxyphenyl)butanoic acid]
NF-κB pathway activation when treated with LPS (NF-κB pathway): significantly enhanced the activation

COC(=O)CCc1ccc(O)cc1 [Compound I-5, methyl 3-(4-hydroxyphenyl) propionate]
NF-κB pathway activation when treated with LPS (NF-κB pathway): significantly enhanced the activation

O=C(O)CCc1ccc(Cl)cc1 [II-2, 3-(4-chlorophenyl)propionic acid]
NF-κB pathway activation when treated with LPS (NF-κB pathway): significantly enhanced the activation

O=C(CCc1ccc(O)cc1)ON1C(=O)CCC1=O [Compound I-7, 3-(4-hydroxyphenyl)propionic acid N-hydroxysuccinimide ester]
NF-κB pathway activation when treated with LPS (NF-κB pathway): significantly enhanced the activation

O=C(O)CCc1ccc(O)cc1 [Compound I-3, 3-(4-hydroxyphenyl)propanoic acid]
NF-κB pathway activation combined with PRR agonists (NF-κB pathway): potentiate | NF-κB pathway activation when treated with LPS (NF-κB pathway): potentiates | IRF pathway activation combined with PRR agonists (IRF pathway): potentiate | GSDMD cleavage in the presence of LPS or LPS+NG stimulation (GSDMD): facilitating gasdermin D cleavage | influenza virus pathology (influenza virus): protects from influenza virus pathology | type 1 interferon signalling (influenza virus): primes the amplification loop of type 1 interferon signalling

O=C([O-])CCc1ccc(O)cc1.[Na+] [Compound I-4, sodium 3-(4-hydroxyphenyl)propionic acid]
NF-κB pathway activation when treated with LPS (NF-κB pathway): significantly enhanced the activation

O=C(O)CCc1cccc(O)c1 [Compound I-2, 3-(3-hydroxyphenyl)propanoic acid]
NF-κB pathway activation combined with PRR agonists (NF-κB pathway): potentiate | NF-κB pathway activation when treated with LPS (NF-κB pathway): potentiates | IRF pathway activation combined with PRR agonists (IRF pathway): potentiate | GSDMD cleavage in the presence of LPS or LPS+NG stimulation (GSDMD): facilitating gasdermin D cleavage

NC(=O)CC[C@H](N)C(=O)O [L-gln, L-glutamine, reference compound]
NF-κB pathway activation when treated with LPS (NF-κB pathway): had no effect | IRF pathway activation combined with PRR agonists (IRF pathway): had no effect

CCOC(=O)CCc1ccc(O)cc1 [Compound I-6, ethyl 3-(4-hydroxyphenyl)propionate]
NF-κB pathway activation when treated with LPS (NF-κB pathway): significantly enhanced the activation

O=C(O)CCCCc1ccc(O)cc1 [III-2, 5-(4-hydroxyphenyl)pentatonic acid]
NF-κB pathway activation when treated with LPS (NF-κB pathway): significantly enhanced the activation

O=C(O)CCC(=O)c1ccc(O)cc1 [IV]
NF-κB pathway activation when treated with LPS (NF-κB pathway): significantly enhanced the activation

Cc1ccc(CCC(=O)O)cc1 [II-4, 3-(4-methylphenyl)propionic acid]
NF-κB pathway activation when treated with LPS (NF-κB pathway): significantly enhanced the activation

O=C(O)CCc1ccc(F)cc1 [II-1, 3-(4-fluorophenyl)propionic acid]
NF-κB pathway activation when treated with LPS (NF-κB pathway): significantly enhanced the activation

Nc1ccc(CCC(=O)O)cc1 [II-3, 3-(4-aminophenyl)propionic acid]
NF-κB pathway activation when treated with LPS (NF-κB pathway): significantly enhanced the activation
